The assay deals with MRSA (2658 RCMB). The assay can be described thus: MIC against MRSA (2658 RCMB), broth dilution. The class given is cell-based, Staphylococcus aureus. To be noted: for MIC: Staphylococcus aureus. The protocol:
Bacteria were cultured in cation-adjusted Mueller Hinton broth in a 96-well plate. Compounds, using triplicate samples, were added to the plate and serially diluted. […] Plates were visually inspected and the MIC was categorized as the concentration at which no visible growth of bacteria was observed. The average of triplicate MIC determinations is reported.
A bacterial solution equivalent to 0.5 McFarland standard was prepared and diluted in cation-adjusted Mueller-Hinton broth (CAMHB) to achieve a bacterial concentration of about 5×10^5 CFU/mL and seeded in 96-well plates. Enterococcus faecium was diluted in brain heart infusion broth. Enterococcus faecalis, Streptococcus pneumonia and Listeria monocytogenes were diluted in tryptone soya broth (TSB).

[1] abbreviates: Table 7, initial screening, MRSA (2658 RCMB), read-out: minimum inhibitory concentration (MIC).
The mark [2] stands for this setting: Table 7, initial screening, MRSA (2658 RCMB).
[3] abbreviates: Table 1, MRSA (2658 RCMB), read-out: MIC ± SD.

In brackets after ≈: the same amount, converted by molar mass. Like-named read-outs stand apart in the source and are kept apart here.

Consider `Cc1nc(-c2ccc(C(C)(C)C)cc2)sc1-c1ccnc(NC(=N)N2CCCC2)n1` [Compound 60, N-(4-(2-(4-(tert-Butyl)phenyl)-4-methylthiazol-5-yl)pyrimidin-2-yl) pyrrolidine-1-carboximidamide], for which the MIC under setting [1] was 50 µg/mL (≈ 119 µM). In the case of `Cc1nc(-c2ccc(C(C)(C)C)cc2)sc1-c1ccnc(N=C(N(C)C)N(C)C)n1` [Compound 59, N-2-(4-(2-(4-(tert-Butyl)phenyl)-4-methylthiazol-5-yl)pyrimidin-2-yl)-1,1,3,3-tetramethylguanidine], the “minimum inhibitory concentration (MIC)” value under setting [2] was more than 50 µg/mL. For the compound `CNc1nccc(-c2sc(-c3ccc(C(C)(C)C)cc3)nc2C)n1` [Compound 41, 4-(2-(4-(tert-Butyl)phenyl)-4-methylthiazol-5-yl)-N-methylpyrimidin-2-amine], the MIC under setting [1] is 25 µg/mL (≈ 73.9 µM).

As for `Cc1nc(-c2ccc(C(C)(C)C)cc2)sc1-c1ccnc(NN)n1` [Compound 55, 2-(4-(tert-Butyl)phenyl)-5-(2-hydrazinylpyrimidin-4-yl)-4-methylthiazole], under setting [1], the MIC worked out at 1.56 µg/mL (≈ 4.6 µM). Same read-out and setting: the value for `Cc1nc(-c2ccc(C(C)(C)C)cc2)sc1-c1ccnc(N2CCC2)n1` [Compound 51, 5-(2-(Azetidin-1-yl)pyrimidin-4-yl)-2-(4-(tert-butyl)phenyl)-4-methylthiazole] was more than 50 µg/mL.

As to `Cc1nc(-c2ccc(C(C)(C)C)cc2)sc1-c1ccnc(N)n1` [Compound 40, 4-(2-(4-(tert-Butyl)phenyl)-4-methylthiazol-5-yl)pyrimidin-2-amine], the MIC under setting [1] turned out to be 6.25 µg/mL (≈ 19.3 µM). Consider `Cc1nc(-c2ccc(I)cc2)sc1-c1ccnc(N)n1` [Compound 23, 4-[2-(4-Iodophenyl)-4-methylthiazol-5-yl]pyrimidin-2-amine], for which the MIC under setting [3] is more than 25 µg/mL. For the compound `Cc1nc(-c2ccc(C(C)(C)C)cc2)sc1-c1ccnc(NC(=N)N)n1` [Compound 56, 1-(4-(2-(4-(tert-Butyl)phenyl)-4-methylthiazol-5-yl)pyrimidin-2-yl)guanidine], the MIC under setting [1] came to 1.56 µg/mL (≈ 4.26 µM). Same read-out and setting: the value for `CNC(=N)Nc1nccc(-c2sc(-c3ccc(C(C)(C)C)cc3)nc2C)n1` [Compound 57, 1-(4-(2-(4-(tert-Butyl)phenyl)-4-methylthiazol-5-yl)pyrimidin-2-yl)-3-methylguanidine] was 1.56 µg/mL (≈ 4.1 µM).

For the compound `CCCCc1ccc(-c2nc(C)c(-c3ccn4ncnc4n3)s2)cc1` [Compound 16, 5-([1,2,4]Triazolo[1,5-a]pyrimidin-5-yl)-2-(4-butylphenyl)-4-methylthiazole], the MIC under setting [3] is more than 25 µg/mL. As for `Cc1nc(-c2ccc(C(C)(C)C)cc2)sc1-c1ccnc(N2CC(O)C2)n1` [Compound 53, 1-(4-(2-(4-(tert-Butyl)phenyl)-4-methylthiazol-5-yl)pyrimidin-2-yl)azetidin-3-ol], under setting [1], the MIC is 6.25 µg/mL (≈ 16.4 µM).

With `Cc1nc(-c2ccc(C(C)(C)C)cc2)sc1-c1ccnc(NC(=N)N2CCN(C)CC2)n1` [Compound 62, N-(4-(2-(4-(tert-Butyl)phenyl)-4-methylthiazol-5-yl)pyrimidin-2-yl)-4-methylpiperazine-1-carboximidamide], the MIC under setting [1] came out at 3.12 µg/mL (≈ 6.94 µM). As to `Cc1nc(-c2ccc(C(C)(C)C)cc2)sc1-c1ccnc(N2CCCC2)n1` [Compound 42], under setting [2], the “minimum inhibitory concentration (MIC)” value was more than 50 µg/mL. As for `CCCCc1ccc(-c2nc(C)c(-c3ccnc(-c4cccnc4)n3)s2)cc1` [Compound 13, 2-(4-Butylphenyl)-4-methyl-5-[2-(38yridine-3-yl)pyrimidin-4-yl]thiazole], the “antibacterial (anti-MRSA) activity, in words” value (Table 1) is listed as “exhibited no antibacterial activity”. For the same compound, the “MIC ± SD” value (Table 1, MRSA (2658 RCMB)) was determined as 17.2 ± 0.4 µg/mL (≈ 44.5 µM). For `Cc1nc(-c2ccc(C(C)(C)C)cc2)sc1-c1ccnc(-c2cccnc2)n1` [Compound 43, 2-(4-(tert-Butyl)phenyl)-4-methyl-5-(2-(pyridin-3-yl)pyrimidin-4-yl)thiazole], under setting [1], the MIC was more than 50 µg/mL.

(Values after patent publication US10414759B2, “Phenylthiazoles and uses thereof” (Purdue Research Foundation, priority 2017, dated 2019).)
